In one series the test system is Melanoma cells. The series can be described thus: in vitro. The format is cell-based, mammalian. As for the experimental part: (§1) Pigment producing cells derived from a mammalian melanoma are grown in culture by standard methods. Preferred cell lines are B16 or S-91 cells, but other lines or primary mouse or human melanocytes can be used.
(§2) Melanoma cells are grown in cell culture medium such as RPMI 1640 (GIBCO) supplemented with fetal calf serum and glutamine to approximately 1/3 confluence. The active is dissolved in culture medium, the pH adjusted as required and sterile filtered. The solution is then added to the cells.
(§3) Cell viability in the presence of the inhibitor is tested using neutral red (3-amino-7-dimethylamino-2-methyl phenazine hydrochloride) a water soluble vital dye which passes through the intact plasma membrane and becomes concentrated in lysosomes of viable cells. For any culture, the amount of dye taken up is proportional to the number of viable cells and agents that damage cell and lysosomal membranes inhibit dye incorporation.
(§4) The cells are incubated in 50 μg/ml neutral red solution for 3 hours at 37° C. in 5% CO2 in air. The solution is aspirated, the cells washed once in saline and to them added a solvent (50% H2 O, 49% ethanol, 1% acetic acid) to solubilise the dye. The amount of neutral red dye is quantified by measuring absorbance at 540 nm.
(§5) The above procedure was used to assess the ability of compositions of (a) dihydrophloretin alone and (b) dihydrophloretin plus retinol to reduce the amount of melanin produced.
(§6) The results for melanin production were calculated as percentages of control which contained medium alone. There was no effect on viability at the concentrations of actives reported.

Another series is described as follows: in vitro. The format is cell-based, mammalian. As to conditions: melanoma cells. On the procedure:
as §1, §2, §3, §4, §5, §6

For series [1], the system named is Pigment producing cells derived from a mammalian melanoma. As to the kind of experiment: In vitro melanocyte cell culture: melanin production (absorbance at 540 nm of melanin released into the medium). The format is cell-based. Conditions: for activity at 300 µM: dihydrophloretin 0.3 mM; for activity at 100 µM: dihydrophloretin 0.1 mM; for activity at 230 µM: dihydrophloretin 0.23 mM; for melanin production as percentage of control / % pigmentation: 5760 min. On the procedure: Test method--In vitro melanocyte cell culture Pigment producing cells derived from a mammalian melanoma are grown in culture by standard methods. Preferred cell lines are B16 or S-91 cells, but other lines or primary mouse or human melanocytes can be used. Melanoma cells are grown in cell culture medium such as RPMI 1640 (GIBCO) supplemented with fetal calf serum and glutamine to approximately 1/3 confluence. The active is dissolved in culture medium, the pH adjusted as required and sterile filtered. The solution is then added to the cells. The cells are cultured for a further period of 4 days and the amount of melanin produced assayed by measuring the absorbance at 540 nm of the melanin released into the medium. The above procedure was used to assess the ability of compositions of (a) dihydrophloretin alone and (b) dihydrophloretin plus retinol to reduce the amount of melanin produced.

The mark [2] stands for this setting: Melanocyte, 96 h, Table 4, trans retinol 0, read-out: melanin production as percentage of control.
Setting [3] is: Melanocyte, 96 h, Table 5, retinol 0, n 3, read-out: % pigmentation.

SMILES strings stand for the structures. Like-named read-outs stand apart in the source and are kept apart here.

The term viability denotes a per cent measure of how many cells are alive, often set against a control. Read a low viability as more harm to the cells. For `Oc1ccc(CCC(O)c2c(O)cc(O)cc2O)cc1` (stereo not shown) [Dihydrophloretin, dihydrophloretin], in the series on Melanoma cells, the cell viability entry is “No adverse effects”. This compound showed a viability at 100 µM in the series “in vitro” of 100%. This compound displayed a viability at 170 µM in “in vitro” of 100%. For the same compound, the viability at 230 µM in “in vitro” was 100%. Besides, the viability at 300 µM in “in vitro” worked out at 100%. Also, in series [1] (Melanocyte, 96 h, Table 3, dihydrophloretin 0.01 mM, 4 days, read-out: % of control melanin production), the activity at 10 µM was 100%. Further, the activity at 30 µM in series [1] (Melanocyte, 96 h, Table 3, dihydrophloretin 0.03 mM, 4 days, read-out: % of control melanin production) was determined as 99.8%. The activity at 300 µM in series [1] (Melanocyte, 96 h, Table 3, 4 days, read-out: % of control melanin production) was 57%; in series [1] (setting [2]), 109%; in series [1] (Melanocyte, 96 h, Table 5, retinol 0, n 4, read-out: % pigmentation), 94%. For the same compound, the activity at 100 µM in series [1] (setting [2]) was found to be 98.1%; in series [1] (setting [3]) it was 99%. In addition, the activity at 170 µM in series [1] (Melanocyte, 96 h, Table 4, dihydrophloretin 0.17 mM, trans retinol 0, read-out: melanin production as percentage of control) was 109%. Also, the figures for the activity at 230 µM in series [1] (setting [2]) and in series [1] (setting [3]) were 109% and 104%, respectively. The “melanin production as percentage of control” value is listed as 120.2 % of control in series [1] (Table 4, dihydrophloretin 0.1 mM plus trans retinol 2.0 μm); 82.1 % of control in series [1] (Table 4, dihydrophloretin 0.1 mM plus trans retinol 6.7 μm, *significantly less (P<0.05) than Control); 111.0 % of control in series [1] (Table 4, dihydrophloretin 0.17 mM plus trans retinol 2.0 μm); 76.0 % of control in series [1] (Table 4, dihydrophloretin 0.17 mM plus trans retinol 6.7 μm, *significantly less (P<0.05) than Control); 110.0 % of control in series [1] (Table 4, dihydrophloretin 0.23 mM plus trans retinol 2.0 μm); 60.9 % of control in series [1] (Table 4, dihydrophloretin 0.23 mM plus trans retinol 6.7 μm, *significantly less (P<0.05) than Control). Further, the “melanin production as percentage of control” value in series [1] (Table 4, dihydrophloretin 0.3 mM plus trans retinol 2.0 μm) was 104.0 % of control; in series [1] (Table 4, dihydrophloretin 0.3 mM plus trans retinol 6.7 μm, *significantly less (P<0.05) than Control) it was 34.0 % of control. The “% pigmentation” value in series [1] (Table 5, dihydrophloretin 0.1 mM plus retinol 2.0 μM, n 1) worked out at 120%; in series [1] (Table 5, dihydrophloretin 0.1 mM plus retinol 6.7 μM, n 2) it was 86%; in series [1] (Table 5, dihydrophloretin 0.17 mM plus retinol 2.0 μM, n 1) it was 111%; in series [1] (Table 5, dihydrophloretin 0.17 mM plus retinol 6.7 μM, n 2) it was 73%; in series [1] (Table 5, dihydrophloretin 0.23 mM plus retinol 2.0 μM, n 1), 110%; in series [1] (Table 5, dihydrophloretin 0.23 mM plus retinol 6.7 μM, n 2) it was 55%. The “% pigmentation” value in series [1] (Table 5, dihydrophloretin 0.3 mM plus retinol 6.7 μM, n 1) is recorded as 34%.

On to `CC1=C(/C=C/C(C)=C/C=C/C(C)=C/CO)C(C)(C)CCC1` [Trans Retinol, retinol, reference compound], for which, in the series with Melanoma cells, the cell viability entry is on record as “No adverse effects”. The same compound had a viability at 2 µM in the series “in vitro” of 100%. This compound yielded a viability at 6.7 µM in “in vitro” of 100%. The activity at 2 µM in series [1] (Melanocyte, 96 h, Table 4, trans retinol 2.0 μm, dihydrophloretin 0, read-out: melanin production as percentage of control) is 121%; in series [1] (Melanocyte, 96 h, Table 5, retinol 2.0 μM, dihydrophloretin 0.0, n 1, read-out: % pigmentation), 120%. Besides, the activity at 6.7 µM stood at 92.9% in series [1] (Melanocyte, 96 h, Table 4, trans retinol 6.7 μm, dihydrophloretin 0, read-out: melanin production as percentage of control) and 97% in series [1] (Melanocyte, 96 h, Table 5, retinol 6.7 μM, dihydrophloretin 0.0, n 2, read-out: % pigmentation).

The record behind these values is patent US5545399A, “Cosmetic composition” (Chesebrough-Pond's USA Co., priority 1993, dated 1996).
